Reference: patent US20160355782A1, “METHOD FOR ENHANCING DIFFERENTIATION OF DOPAMINERGIC NEURONS” (Buddhist Tzu Chi Medical Foundation, priority 2015, published 2016)

Assays:
VM precursor cultures = assay: Immuno-cytochemistry and TH+ cell counting in VM precursor cultures; type: cell-based, rat
Experimental: Briefly, ventral mesencephalic tissues were dissected from E14.5 Sprague-Dawley (SD) rats, and then dissociated enzymatically (0.1% trypsin) and mechanically. Cells were seeded into 24-well (1×10^5/cm^2) culture plates pre-coated with 20 μg/mL poly-D-lysine (Sigma-Aldrich), and were maintained in 0.5 mL/well of minimum essential medium (MEM) supplemented with 10% fetal bovine serum (FBS), 10% horse serum (HS), 1 g/L glucose, 2 mM L-glutamine, 1 mM sodium pyruvate, 100 μM nonessential amino acids, 100 U/mL penicillin, and 100 μg/mL streptomycin (all purchased from Invitrogen). Cultures were maintained at 37° C. in a humidified atmosphere of 5% CO2 and 95% air. For DA neuron differentiation, VM precursor cultures, four hours after seeding, were switched to Dulbecco's Modified Eagle's Medium (DMEM)/Ham's F12 (1:1) containing N2 supplement (Invitrogen, Carlsbad, Calif.), penicillin and streptomycin. Immediately following the switch to DMEM/F12 medium, VM precursor cells were treated with various concentration of rat UCN (from Sigma-Aldrich, St. Louis, Mo.) for the indicated periods. For neutralization of endogenous UCN bioactivity, anti-UCN antibody (15 μg/mL) (Santa Cruz Biotechnology, Santa Cruz, Calif.) was added to the VM precursor cultures.
For immuno-cytochemistry, cells were fixed with 4% paraformaldehyde followed by blocking with PBS containing 0.4% Triton X-100, 3% normal goat serum and 2% bovine serum albumin (BSA) for 1 h at room temperature. After blocking, cells were incubated overnight at room temperature with primary antibodies. Primary antibodies were rabbit anti-UCN (1:200), mouse anti-TH (1:2000) (both from Sigma-Aldrich), goat anti-CRHR1 (1:100), rabbit anti-CRHR2 (1:250), rat anti-dopamine transporter (DAT, 1:200), chicken anti-MAP2 (1:5000) (all from Abcam, Cambridge, Mass.), rabbit anti-Nurr1 (1:100, Santa Cruz Biotechnology), mouse anti-Nurr1 (1:100, R&D Systems, Minneapolis, Minn.), rabbit anti-TH (1:1000), mouse anti-NeuN (1:200) (both from Chemicon, Temecula, Calif.), rabbit anti-acetyl-histone H3 (1:1000, Upstate Biotechnology, Lake Placid, N.Y.), rabbit anti-Foxa2 (1:500, Cell Signaling Technology), and rabbit anti-Pitx3 (1:100, Invitrogen).
For detection of dopaminergic neurons, the bound anti-TH antibody was visualized by incubation with an appropriate biotinylated secondary antibody followed by the Vectastain avidin-biotin-peroxidase (ABC) reagents (Vector Laboratories, Burlingame, Calif.) and color development with 3,3′-diaminobenzidine. The number of TH-positive neurons were counted in the entire surface area of a culture well or coverslip. For fluorescent double-labeling experiments, cells were incubated for 1 h at room temperature with rhodamine-conjugated donkey anti-mouse IgG (1:250), FITC-conjugated goat anti-rabbit IgG (1:250) or FITC-conjugated donkey anti-goat IgG (1:200) secondary antibodies (all from Jackson Immuno Research, West Grove, Pa.). Samples were counter-stained with Hoechst 33342 (5 μg/mL, Sigma-Aldrich) or DAPI (1 μg/mL), and mounted with 50% glycerol in PBS. Microscopic observations were done with a Zeiss Axiovert 200 M fluorescent microscope or a Zeiss LSM 510 META confocal imaging system (Carl Zeiss, Oberkochen, Germany). Immuno-reactive or Hoechst 33342-stained cells were counted in at least 10 random areas of each culture coverslip at a magnification of 100×.

[1] = system: TH promoter in SH-SY5Y cells; assay: TH promoter assay (pTH6.0-GL3 luciferase) in SH-SY5Y cells; type: cell-based, human; conditions: 24 hours; for elicited TH promoter activity on forced MeCP2 or CoREST expression / elicited TH promoter activity on co-transfection with HDAC1: 1 μM UCN or 1.25 mM SB; for elicited TH promoter activity on co-transfection with HDAC1: pK7-HDAC1 co-transfection
Source text: The luciferase reporter vector pTH6.0-GL3 constructed by engineering the 6.0 kb upstream sequences of the rat TH (TH6.0) gene into pGL3 was kindly provided by Dr. Kwang-Soo Kim (Harvard Medical School, Belmont, Mass.). Vector expressing Nurr1 (mouse) was constructed by inserting the respective cDNA into pAAV-MCS vector (pAAV-Nurr1), in which the cloned gene is designed to be expressed under the control of the cytomegalovirus (CMV) immediate-early promoter. pTH6.0-GL3 alone or combined with pAAV-Nurr1 were transfected into a human neuro-blastoma SH-SY5Y cell line or cortical NPCs, respectively, using Lipofectamine 2000 (Invitrogen) according to the protocol of the manufacturer. For determine the effect of MeCP2-CoREST-HDAC1 repressor complex on TH promoter activity, the SH-SY5Y cells were double transfected with pTH6.0-GL3 and pCMV6-Entry-Mecp2 (Flag-tagged MeCP2)/or pCMV6-Entry-Rcor1 (Flag-tagged CoREST) (both from OriGene Technologies, Rockville, Md.)/or pK7-HDAC1-GFP (Addgene). At 24 h after transfection, cells were treated with 1 μM UCN or 1.25 mM SB for another 24 h. Luciferase activity of cell lysates was determined luminometrically by the luciferase assay system (Promega, Madison, Wis.) as specified by the manufacturer. Luciferase activity was normalized to the protein content of the extracts. Relative luciferase activity was determined to reflect promoter activity of TH, expressed as the fold increase relative to the activity of control or untreated mock control.

rat TH promoter = assay: Chromatin immuno-precipitation (ChIP) at the TH promoter in VM precursor cultures; type: cell-based
Experimental: VM precursor cultures were treated with 1 μM UCN for about 1 to 2 days. VM cells for ChIP from rat embryos, the pregnant rats on day 12.5 of gestation were intra-peritoneally injected with saline as control or 10 μg/kg UCN as treatment every 24 h for 3 days before sacrifice. The ventral mesencephalon from E15.5 embryos was dissected. Cells were cross-linked with 1% formaldehyde, and stored at −80° C. before use.
Chromatin immuno-precipitation (ChIP) assays were performed using SimpleChIP® Enzymatic Chromatin IP kit (Cell Signaling Technology, Beverly, Mass.) by the instruction of the kit. Briefly, cross-linked chromatin in the cells was enzymatic digested to generate fragments with a length of approximately 150-900 bp (1 to 5 nucleosomes). The chromatin was subjected to immuno-precipitation using the following antibodies: anti-Nurr1 (Santa Cruz), anti-acetyl histone H3 (Ac-H3), anti-HDAC1, anti-CoREST (all from Upstate Biotechnology), anti-MeCP2 (Chemicon,), anti-Foxa2 (Cell signaling Technology), anti-Pitx3, and IgG (both from Abcam). Immuno-precipitated DNA fragments were collected by protein G magnetic beads. DNA/protein complexes were eluted from the beads and reverse cross-linked at 65° C. for 2 h in the presence of proteinase K. Purified DNA were subjected to real-time PCR using primers specific to rat TH promoter loci (referring to Table 2). The abundance of the immuno-precipitated DNA in a sample was normalized to the amount of signal in the input DNA. The values of the control samples were set to 1.0.

[2] = SB, compared with the UCN effect

Urocortin [UCN]
number of TH+ neurons over time (VM precursor cultures; 1 μM UCN as early as 1 day in vitro vs control medium at 4 days in vitro): clearly higher than that of control medium | Nurr1-immuno-reactive intensity (VM precursor cultures; 1 μM UCN, 2 to 3 days): increased | level of Foxa2 and Pitx3 in Nurr1+ cells (VM precursor cultures; 1 μM UCN, 2 to 3 days): increased level | TH+ cells co-expressing NeuN, MAP2 and DAT (VM precursor cultures; 1 μM UCN, 4 days, double immuno-staining): all the TH^+ cells | number of Nurr1+ cells (VM precursor cultures; UCN treated cultures (control 4.91%±0.54%)): 4.68%±0.4% | differentiation of Nurr1+/TH- precursors into Nurr1+/TH+ DA neurons (VM precursor cultures; UCN vs control): more Nurr1^+ cells develop concomitant TH^+ expression | numbers of TH+ cells (VM precursor cultures; increasing doses of UCN, 3 days): dose-dependent increase | elicited TH promoter activity on forced MeCP2 or CoREST expression [1]: attenuation | TH promoter activity (relative luciferase activity) ([1]; 1 μM UCN): activation of the TH promoter | elicited TH promoter activity on co-transfection with HDAC1 [1]: significantly attenuated | Nurr1 protein occupancy at the TH promoter (rat TH promoter; 1 μM UCN, 2 days): significantly increased | CoREST binding in the TH promoter regions (rat TH promoter; UCN): decreased CoREST binding | Foxa2 occupancy at Nurr1 binding sites of TH promoter (rat TH promoter; UCN): increases | HDAC1 recruitment at the TH promoter (rat TH promoter; UCN): significantly reduced | histone H3 acetylation at TH promoter regions (rat TH promoter; UCN): significantly increased | MeCP2 recruitment to the TH promoter (rat TH promoter; UCN, Nurr1-binding sites and repeated CpGs): significantly reduced

CCCC(=O)[O-].[Na+] [SB, sodium butyrate, reference compound]
% TH+ cells out of total Nurr1+ cells (conversion of Nurr1+ precursors) (VM precursor cultures; 1.25 mM SB, 3 days): increased DA cell numbers was through conversion of Nurr1^+ precursors into DA neurons | cells with TH staining (VM precursor cultures; 1.25 mM SB, 3 days): increase in cells with TH staining | elicited TH promoter activity on forced MeCP2 or CoREST expression [1]: attenuation | TH promoter activity ([1]; 1.25 mM SB): increase TH promoter activity | elicited TH promoter activity on co-transfection with HDAC1 [1]: significantly attenuated | Nurr1 recruitment at the TH promoter (rat TH promoter; [2]): mimicked | histone acetylation at the TH promoter (rat TH promoter; [2]): mimicked
